Patent US20250179052A1, “PYRIMIDINYL-OXY-QUINOLINE BASED HERBICIDAL COMPOUNDS” (SYNGENTA CROP PROTECTION AG, priority 2022, published 2025)

Experiments:
Details in all cases: 250 g/ha, evaluated after 13 days, five-point scale
AMAPA [1] = assay: Pre-emergence herbicidal glasshouse test; type: in vivo, Amaranthus tuberculatus
AMAPA [2] = assay: Post-emergence herbicidal glasshouse test; type: in vivo, Amaranthus tuberculatus
[3] = tested on: Ipomoea hederacea (IPOHE); assay: Pre-emergence herbicidal glasshouse test; type: in vivo
[4] = tested on: Ipomoea hederacea (IPOHE); assay: Post-emergence herbicidal glasshouse test; type: in vivo
Setaria faberi (SETFA) [5] = assay: Pre-emergence herbicidal glasshouse test; type: in vivo
[6] = tested on: Echinochloa crus-galli (ECHCG); assay: Post-emergence herbicidal glasshouse test; type: in vivo
[7] = tested on: Echinochloa crus-galli (ECHCG); assay: Pre-emergence herbicidal glasshouse test; type: in vivo
[8] = tested on: Amaranthus retoflexus (AMARE); assay: Pre-emergence herbicidal glasshouse test; type: in vivo
[9] = tested on: Amaranthus retoflexus (AMARE); assay: Post-emergence herbicidal glasshouse test; type: in vivo
Setaria faberi (SETFA) [10] = assay: Post-emergence herbicidal glasshouse test; type: in vivo

## Cc1nc(C(F)(F)F)nc2cccc(Oc3ncc(Cl)cn3)c12 [Compound 1.001, 5-(5-chloropyrimidin-2-yl)oxy-4-methyl-2-(trifluoromethyl)quinazoline]
AMAPA [1]
  percentage damage caused to the plant, AMAPA: 5 (5=81-100%)
AMAPA [2]
  percentage damage caused to the plant, AMAPA: 5 (5=81-100%)
[3]
  percentage damage caused to the plant, IPOHE: 5 (5=81-100%)
[4]
  percentage damage caused to the plant, IPOHE: 2 (2=21-40%)
Setaria faberi (SETFA) [5]
  percentage damage caused to the plant, SETFA: 3 (3=41-60%)
[6]
  percentage damage caused to the plant, ECHCG: 3 (3=41-60%)
[7]
  percentage damage caused to the plant, ECHCG: 3 (3=41-60%)
[8]
  percentage damage caused to the plant, AMARE: 5 (5=81-100%)
[9]
  percentage damage caused to the plant, AMARE: 5 (5=81-100%)
Setaria faberi (SETFA) [10]
  percentage damage caused to the plant, SETFA: 4 (4=61-80%)

## FC(F)(F)c1ncc2c(Oc3ncc(Cl)cn3)cccc2n1 [Compound 1.002, 5-(5-chloropyrimidin-2-yl)oxy-2-(trifluoromethyl)quinazoline]
AMAPA [1]
  percentage damage caused to the plant, AMAPA: 5 (5=81-100%)
AMAPA [2]
  percentage damage caused to the plant, AMAPA: 5 (5=81-100%)
[3]
  percentage damage caused to the plant, IPOHE: 5 (5=81-100%)
[4]
  percentage damage caused to the plant, IPOHE: 4 (4=61-80%)
Setaria faberi (SETFA) [5]
  percentage damage caused to the plant, SETFA: 5 (5=81-100%)
[6]
  percentage damage caused to the plant, ECHCG: 5 (5=81-100%)
[7]
  percentage damage caused to the plant, ECHCG: 5 (5=81-100%)
[8]
  percentage damage caused to the plant, AMARE: 5 (5=81-100%)
[9]
  percentage damage caused to the plant, AMARE: 5 (5=81-100%)
Setaria faberi (SETFA) [10]
  percentage damage caused to the plant, SETFA: 4 (4=61-80%)

## N#Cc1cc(Cl)cnc1Oc1cccc2nc(C(F)(F)F)ncc12 [Compound 1.007]
AMAPA [1]
  percentage damage caused to the plant, AMAPA: 4 (4=61-80%)
[3]
  percentage damage caused to the plant, IPOHE: 2 (2=21-40%)
[4]
  percentage damage caused to the plant, IPOHE: 2 (2=21-40%)
Setaria faberi (SETFA) [5]
  percentage damage caused to the plant, SETFA: 5 (5=81-100%)
[6]
  percentage damage caused to the plant, ECHCG: 3 (3=41-60%)
[7]
  percentage damage caused to the plant, ECHCG: 4 (4=61-80%)
[8]
  percentage damage caused to the plant, AMARE: 4 (4=61-80%)
[9]
  percentage damage caused to the plant, AMARE: 2 (2=21-40%)
Setaria faberi (SETFA) [10]
  percentage damage caused to the plant, SETFA: 4 (4=61-80%)

## Fc1cnc(Oc2cccc3nc(C(F)(F)F)ccc23)nc1 [Compound 1.042]
AMAPA [1]
  percentage damage caused to the plant, AMAPA: 5 (5=81-100%)
AMAPA [2]
  percentage damage caused to the plant, AMAPA: 5 (5=81-100%)
[3]
  percentage damage caused to the plant, IPOHE: 5 (5=81-100%)
[4]
  percentage damage caused to the plant, IPOHE: 4 (4=61-80%)
[6]
  percentage damage caused to the plant, ECHCG: 4 (4=61-80%)
[7]
  percentage damage caused to the plant, ECHCG: 5 (5=81-100%)
[8]
  percentage damage caused to the plant, AMARE: 5 (5=81-100%)
[9]
  percentage damage caused to the plant, AMARE: 5 (5=81-100%)

## Fc1cnc(Oc2ccc(Cl)c3nc(C(F)(F)Cl)ncc23)nc1 [Compound 1.043]
AMAPA [1]
  percentage damage caused to the plant, AMAPA: 4 (4=61-80%)
AMAPA [2]
  percentage damage caused to the plant, AMAPA: 3 (3=41-60%)
[3]
  percentage damage caused to the plant, IPOHE: 1 (1=0-20%)
[4]
  percentage damage caused to the plant, IPOHE: 2 (2=21-40%)
[6]
  percentage damage caused to the plant, ECHCG: 1 (1=0-20%)
[7]
  percentage damage caused to the plant, ECHCG: 1 (1=0-20%)
[8]
  percentage damage caused to the plant, AMARE: 4 (4=61-80%)
[9]
  percentage damage caused to the plant, AMARE: 3 (3=41-60%)

## Fc1cnc(Oc2ccc(Cl)c3nc(C(F)F)ncc23)nc1 [Compound 1.046]
AMAPA [1]
  percentage damage caused to the plant, AMAPA: 4 (4=61-80%)
AMAPA [2]
  percentage damage caused to the plant, AMAPA: 1 (1=0-20%)
[3]
  percentage damage caused to the plant, IPOHE: 1 (1=0-20%)
[4]
  percentage damage caused to the plant, IPOHE: 2 (2=21-40%)
[6]
  percentage damage caused to the plant, ECHCG: 1 (1=0-20%)
[7]
  percentage damage caused to the plant, ECHCG: 1 (1=0-20%)
[8]
  percentage damage caused to the plant, AMARE: 5 (5=81-100%)
[9]
  percentage damage caused to the plant, AMARE: 2 (2=21-40%)

## Cc1ccc(Oc2ncc(F)cn2)c2cnc(C(F)(F)Cl)nc12 [Compound 1.049]
AMAPA [1]
  percentage damage caused to the plant, AMAPA: 1 (1=0-20%)
AMAPA [2]
  percentage damage caused to the plant, AMAPA: 3 (3=41-60%)
[3]
  percentage damage caused to the plant, IPOHE: 1 (1=0-20%)
[4]
  percentage damage caused to the plant, IPOHE: 2 (2=21-40%)
[6]
  percentage damage caused to the plant, ECHCG: 1 (1=0-20%)
[7]
  percentage damage caused to the plant, ECHCG: 1 (1=0-20%)
[8]
  percentage damage caused to the plant, AMARE: 1 (1=0-20%)
[9]
  percentage damage caused to the plant, AMARE: 2 (2=21-40%)

## Cc1nc(C(F)F)nc2cccc(Oc3ncc(Br)cn3)c12 [Compound 1.051]
AMAPA [1]
  percentage damage caused to the plant, AMAPA: 1 (1=0-20%)
AMAPA [2]
  percentage damage caused to the plant, AMAPA: 1 (1=0-20%)
[3]
  percentage damage caused to the plant, IPOHE: 1 (1=0-20%)
[4]
  percentage damage caused to the plant, IPOHE: 1 (1=0-20%)
[6]
  percentage damage caused to the plant, ECHCG: 1 (1=0-20%)
[7]
  percentage damage caused to the plant, ECHCG: 1 (1=0-20%)
[8]
  percentage damage caused to the plant, AMARE: 1 (1=0-20%)
[9]
  percentage damage caused to the plant, AMARE: 1 (1=0-20%)

## Cc1nc(C(F)F)nc2cccc(Oc3ncc(F)cn3)c12 [Compound 1.052]
AMAPA [1]
  percentage damage caused to the plant, AMAPA: 1 (1=0-20%)
AMAPA [2]
  percentage damage caused to the plant, AMAPA: 1 (1=0-20%)
[3]
  percentage damage caused to the plant, IPOHE: 1 (1=0-20%)
[4]
  percentage damage caused to the plant, IPOHE: 2 (2=21-40%)
[6]
  percentage damage caused to the plant, ECHCG: 1 (1=0-20%)
[7]
  percentage damage caused to the plant, ECHCG: 2 (2=21-40%)
[8]
  percentage damage caused to the plant, AMARE: 2 (2=21-40%)
[9]
  percentage damage caused to the plant, AMARE: 1 (1=0-20%)

## FC(F)c1ncc2c(Oc3ncc(Cl)cn3)ccc(Cl)c2n1 [Compound 1.054]
AMAPA [1]
  percentage damage caused to the plant, AMAPA: 5 (5=81-100%)
AMAPA [2]
  percentage damage caused to the plant, AMAPA: 2 (2=21-40%)
[3]
  percentage damage caused to the plant, IPOHE: 1 (1=0-20%)
[4]
  percentage damage caused to the plant, IPOHE: 1 (1=0-20%)
[6]
  percentage damage caused to the plant, ECHCG: 1 (1=0-20%)
[7]
  percentage damage caused to the plant, ECHCG: 2 (2=21-40%)
[8]
  percentage damage caused to the plant, AMARE: 5 (5=81-100%)
[9]
  percentage damage caused to the plant, AMARE: 2 (2=21-40%)

## FC(F)(Cl)c1ncc2c(Oc3ncc(Br)cn3)cccc2n1 [Compound 1.055, 5-(5-bromopyrimidin-2-yl)oxy-2-[chloro(difluoro)methyl]quinazoline]
AMAPA [1]
  percentage damage caused to the plant, AMAPA: 5 (5=81-100%)
AMAPA [2]
  percentage damage caused to the plant, AMAPA: 3 (3=41-60%)
[3]
  percentage damage caused to the plant, IPOHE: 2 (2=21-40%)
[4]
  percentage damage caused to the plant, IPOHE: 2 (2=21-40%)
[6]
  percentage damage caused to the plant, ECHCG: 2 (2=21-40%)
[7]
  percentage damage caused to the plant, ECHCG: 4 (4=61-80%)
[8]
  percentage damage caused to the plant, AMARE: 5 (5=81-100%)
[9]
  percentage damage caused to the plant, AMARE: 2 (2=21-40%)

## Cc1cnc(Oc2cccc3nc(C(F)(F)Cl)ncc23)nc1 [Compound 1.056, 2-[chloro(difluoro)methyl]-5-(5-methylpyrimidin-2-yl)oxy-quinazoline]
AMAPA [1]
  percentage damage caused to the plant, AMAPA: 5 (5=81-100%)
AMAPA [2]
  percentage damage caused to the plant, AMAPA: 4 (4=61-80%)
[3]
  percentage damage caused to the plant, IPOHE: 5 (5=81-100%)
[4]
  percentage damage caused to the plant, IPOHE: 4 (4=61-80%)
[6]
  percentage damage caused to the plant, ECHCG: 3 (3=41-60%)
[7]
  percentage damage caused to the plant, ECHCG: 5 (5=81-100%)
[8]
  percentage damage caused to the plant, AMARE: 5 (5=81-100%)
[9]
  percentage damage caused to the plant, AMARE: 2 (2=21-40%)

## FC(F)(Cl)c1ncc2c(Oc3ncc(Cl)cn3)cccc2n1 [Compound 1.057]
AMAPA [1]
  percentage damage caused to the plant, AMAPA: 5 (5=81-100%)
AMAPA [2]
  percentage damage caused to the plant, AMAPA: 4 (4=61-80%)
[3]
  percentage damage caused to the plant, IPOHE: 5 (5=81-100%)
[4]
  percentage damage caused to the plant, IPOHE: 4 (4=61-80%)
[6]
  percentage damage caused to the plant, ECHCG: 4 (4=61-80%)
[7]
  percentage damage caused to the plant, ECHCG: 5 (5=81-100%)
[8]
  percentage damage caused to the plant, AMARE: 5 (5=81-100%)
[9]
  percentage damage caused to the plant, AMARE: 4 (4=61-80%)

## Fc1cnc(Oc2cccc3nc(C(F)F)ncc23)nc1 [Compound 1.058]
AMAPA [1]
  percentage damage caused to the plant, AMAPA: 5 (5=81-100%)
AMAPA [2]
  percentage damage caused to the plant, AMAPA: 2 (2=21-40%)
[3]
  percentage damage caused to the plant, IPOHE: 3 (3=41-60%)
[4]
  percentage damage caused to the plant, IPOHE: 4 (4=61-80%)
[6]
  percentage damage caused to the plant, ECHCG: 1 (1=0-20%)
[7]
  percentage damage caused to the plant, ECHCG: 1 (1=0-20%)
[8]
  percentage damage caused to the plant, AMARE: 5 (5=81-100%)
[9]
  percentage damage caused to the plant, AMARE: 2 (2=21-40%)

## Fc1cnc(Oc2cccc3nc(C(F)(F)Cl)ncc23)nc1 [Compound 1.061, 2-[chloro(difluoro)methyl]-5-(5-fluoropyrimidin-2-yl)oxy-quinazoline]
AMAPA [1]
  percentage damage caused to the plant, AMAPA: 5 (5=81-100%)
AMAPA [2]
  percentage damage caused to the plant, AMAPA: 4 (4=61-80%)
[3]
  percentage damage caused to the plant, IPOHE: 5 (5=81-100%)
[4]
  percentage damage caused to the plant, IPOHE: 4 (4=61-80%)
[6]
  percentage damage caused to the plant, ECHCG: 4 (4=61-80%)
[7]
  percentage damage caused to the plant, ECHCG: 5 (5=81-100%)
[8]
  percentage damage caused to the plant, AMARE: 5 (5=81-100%)
[9]
  percentage damage caused to the plant, AMARE: 4 (4=61-80%)

## N#Cc1ccc(Oc2ncc(Cl)cn2)c2cnc(C(F)(F)F)nc12 [Compound 1.065]
AMAPA [1]
  percentage damage caused to the plant, AMAPA: 1 (1=0-20%)
AMAPA [2]
  percentage damage caused to the plant, AMAPA: 1 (1=0-20%)
[3]
  percentage damage caused to the plant, IPOHE: 1 (1=0-20%)
[4]
  percentage damage caused to the plant, IPOHE: 2 (2=21-40%)
[6]
  percentage damage caused to the plant, ECHCG: 1 (1=0-20%)
[7]
  percentage damage caused to the plant, ECHCG: 1 (1=0-20%)
[8]
  percentage damage caused to the plant, AMARE: 1 (1=0-20%)
[9]
  percentage damage caused to the plant, AMARE: 1 (1=0-20%)

## Cc1cc(C(F)(F)F)nc2cccc(Oc3ncc(Cl)cc3F)c12 [Compound 1.066]
AMAPA [1]
  percentage damage caused to the plant, AMAPA: 1 (1=0-20%)
AMAPA [2]
  percentage damage caused to the plant, AMAPA: 1 (1=0-20%)
[3]
  percentage damage caused to the plant, IPOHE: 1 (1=0-20%)
[4]
  percentage damage caused to the plant, IPOHE: 1 (1=0-20%)
[6]
  percentage damage caused to the plant, ECHCG: 1 (1=0-20%)
[7]
  percentage damage caused to the plant, ECHCG: 1 (1=0-20%)
[8]
  percentage damage caused to the plant, AMARE: 1 (1=0-20%)
[9]
  percentage damage caused to the plant, AMARE: 1 (1=0-20%)
